These results are taken from ChEMBL document CHEMBL5385876, “Discovery of unglycosylated indolocarbazoles as ROCK2 isoform-selective inhibitors for the treatment of breast cancer metastasis” (Eur J Med Chem, 2023).

SMILES strings stand for the structures. Some results are limits rather than exact numbers.

Chain of Rho-associated protein kinase 2 (O75116 whole entry, the tested form may be a part): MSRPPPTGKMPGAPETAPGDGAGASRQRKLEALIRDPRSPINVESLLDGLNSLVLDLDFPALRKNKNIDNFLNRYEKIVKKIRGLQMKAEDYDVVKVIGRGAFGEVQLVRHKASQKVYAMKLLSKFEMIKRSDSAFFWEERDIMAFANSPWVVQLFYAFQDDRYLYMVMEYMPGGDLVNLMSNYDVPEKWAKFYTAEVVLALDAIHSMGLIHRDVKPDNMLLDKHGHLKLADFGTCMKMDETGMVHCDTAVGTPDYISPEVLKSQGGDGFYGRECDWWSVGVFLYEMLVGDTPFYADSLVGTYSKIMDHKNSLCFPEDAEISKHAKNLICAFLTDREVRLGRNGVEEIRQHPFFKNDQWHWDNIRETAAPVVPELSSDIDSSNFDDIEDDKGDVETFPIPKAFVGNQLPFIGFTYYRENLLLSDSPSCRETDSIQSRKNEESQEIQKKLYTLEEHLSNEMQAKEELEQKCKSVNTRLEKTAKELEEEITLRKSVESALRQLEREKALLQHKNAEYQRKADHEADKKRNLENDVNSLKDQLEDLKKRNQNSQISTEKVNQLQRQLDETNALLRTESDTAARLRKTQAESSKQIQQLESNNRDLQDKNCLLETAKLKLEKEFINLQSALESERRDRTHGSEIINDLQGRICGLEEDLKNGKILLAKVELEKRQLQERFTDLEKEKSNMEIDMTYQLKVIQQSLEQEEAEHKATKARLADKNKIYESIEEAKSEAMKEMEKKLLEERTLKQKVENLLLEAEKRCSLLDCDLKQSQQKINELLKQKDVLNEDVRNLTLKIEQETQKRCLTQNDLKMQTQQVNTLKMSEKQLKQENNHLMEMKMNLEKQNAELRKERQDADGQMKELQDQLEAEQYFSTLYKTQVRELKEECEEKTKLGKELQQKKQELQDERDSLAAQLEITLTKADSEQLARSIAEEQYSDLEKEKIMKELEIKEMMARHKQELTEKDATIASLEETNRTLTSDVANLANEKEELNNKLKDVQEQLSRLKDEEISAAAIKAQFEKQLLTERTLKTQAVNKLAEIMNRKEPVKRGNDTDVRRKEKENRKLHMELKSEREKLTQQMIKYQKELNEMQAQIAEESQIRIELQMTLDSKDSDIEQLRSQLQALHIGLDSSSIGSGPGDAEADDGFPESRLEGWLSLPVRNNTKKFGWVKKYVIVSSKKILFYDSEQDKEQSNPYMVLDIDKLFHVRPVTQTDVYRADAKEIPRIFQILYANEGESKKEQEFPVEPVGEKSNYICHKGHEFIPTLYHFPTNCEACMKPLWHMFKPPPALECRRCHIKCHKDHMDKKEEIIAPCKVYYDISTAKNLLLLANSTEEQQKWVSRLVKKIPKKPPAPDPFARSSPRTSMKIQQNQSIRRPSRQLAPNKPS

The assay has as its target Rho-associated protein kinase 2 (Homo sapiens, UniProt O75116). The assay can be described thus: Inhibition of N-terminal His10-StrepII tagged human ROCK2 catalytic domain (1 to 553 residues) expressed in Sf9 insect cells by HTRF assay. On the technique in general: Time-resolved FRET reads energy transfer from a long-lived donor to a nearby acceptor.
One may read the IC50 as the point on the concentration scale where inhibition reaches its midpoint. High values mean weaker potency, low ones greater potency. With `COc1ccc2[nH]c3c4[nH]c5ccccc5c4c4c(c3c2c1)C(=O)NC4=O`, inhibition was half-maximal at 100 nM (IC50).

Consider `COc1ccc2[nH]c3c4[nH]c5ccc(O)cc5c4c4c(c3c2c1)C(=O)NC4`, for which inhibition was half-maximal at 460 nM (IC50).

In turn, `CO[C@@H]1[C@H](O)[C@H](O)[C@H](C)O[C@H]1n1c2ccc(O)cc2c2c3c(c4c5ccccc5[nH]c4c21)CNC3=O` came in with an IC50 above 500 nM.

For `O=C1NCc2c1c1c3ccccc3[nH]c1c1[nH]c3ccccc3c21` [STAUROSPORINONE], the IC50 is above 500 nM.

On to `CN[C@@H]1C[C@H]2O[C@@](C)([C@@H]1OC)n1c3ccccc3c3c4c(c5c6ccccc6n2c5c31)C(=O)NC4=O` (stereo in doubt; 14), for which inhibition was half-maximal at 310 nM (IC50).

`CO[C@@H]1[C@H](NC(C)=O)C[C@H]2O[C@]1(C)n1c3ccccc3c3c4c(c5c6ccccc6n2c5c31)C(=O)NC4` came in with an IC50 of 340 nM.

Turning to `COC(=O)[C@H]1C[C@H]2O[C@]1(C)n1c3ccccc3c3c4c(c5c6ccccc6n2c5c31)C(=O)NC4`, the 50% inhibitory concentration (IC50) is 370 nM.

For `COc1ccc2[nH]c3c4[nH]c5ccc(O)cc5c4c4c(c3c2c1)CNC4=O`, the IC50 amounted to 120 nM.

Turning to `COc1ccc2[nH]c3c4[nH]c5ccccc5c4c4c(c3c2c1)CNC4=O`, the IC50 is above 500 nM.

In the case of `C[C@@H]1O[C@@H](n2c3ccccc3c3c4c(c5c6ccccc6[nH]c5c32)CNC4=O)C[C@@H](N)[C@H]1OC(O)C1CO1` (stereo partly specified), the IC50 was determined as 140 nM.

In the case of `CO[C@@H]1[C@H](O)C[C@H]2O[C@]1(C)n1c3ccccc3c3c4c(c5c6ccccc6n2c5c31)C(=O)NC4`, the IC50 was determined as 8000 nM.

As to `CO[C@@H]1/C(=N/O)C[C@H]2O[C@]1(C)n1c3ccccc3c3c4c(c5c6ccccc6n2c5c31)C(=O)NC4`, the IC50 was above 500 nM.

In the case of `CO[C@H]1[C@@H](N2CC[C@@H](O)C2=O)C[C@H]2O[C@@]1(C)n1c3ccccc3c3c4c(c5c6ccccc6n2c5c31)C(=O)NC4` (racemic), the IC50 amounted to 260 nM.

`C[C@]12O[C@H](C[C@@H](O)[C@H]1O)n1c3ccccc3c3c4c(c5c6ccccc6n2c5c31)CNC4=O` displayed an IC50 of 2880 nM.

Regarding `O=C1NCc2c1c1c3cccc(O)c3[nH]c1c1[nH]c3ccccc3c21`, half-maximal inhibition (IC50) required 260 nM.

As for `CO[C@@H]1[C@@H](O)[C@@H](O)[C@H]2O[C@]1(C)n1c3ccccc3c3c4c(c5c6ccccc6n2c5c31)C(=O)NC4=O`, the IC50 is above 500 nM.

`COc1ccc2[nH]c3c4[nH]c5ccccc5c4c4c(c3c2c1)C(=O)NC4` had an IC50 above 500 nM.

As to `CO[C@@H]1[C@@H](O)[C@@H](O)[C@H]2O[C@]1(C)n1c3ccccc3c3c4c(c5c6ccccc6n2c5c31)C(=O)N[C@@H]4O`, the IC50 was above 500 nM.

With `O=C1NCc2c1c1c3ccc(O)cc3[nH]c1c1[nH]c3ccccc3c21`, 23 nM corresponded to half-maximal inhibition (IC50).

Molecule `C[C@]12O[C@H](C[C@@H](N)[C@H]1O)n1c3ccccc3c3c4c(c5c6ccccc6n2c5c31)CNC4=O` yielded an IC50 of 35 nM.

Take `COc1cccc2[nH]c3c4[nH]c5ccccc5c4c4c(c3c12)C(=O)NC4=O`: the IC50 is above 500 nM.

`C[C@]12O[C@H](C[C@@H](N)[C@H]1O)n1c3ccccc3c3c4c(c5c6ccccc6n2c5c31)C(=O)NC4=O` registered an IC50 of 360 nM.

Regarding `CC(C)(C)c1ccc2[nH]c3c4[nH]c5ccccc5c4c4c(c3c2c1)C(=O)NC4`, the IC50 was above 500 nM.

`O=C1NCc2c1c1c3ccccc3[nH]c1c1[nH]c3cc(O)ccc3c21`: 200 nM corresponded to half-maximal inhibition (IC50).

For the molecule `CN[C@]1(C(=O)OC)C[C@H]2O[C@]1(C)n1c3ccccc3c3c4c(c5c6ccccc6n2c5c31)C(=O)NC4`, the IC50 is above 500 nM.

Take `CC(=O)N[C@@H]1C[C@H](n2c3ccccc3c3c4c(c5c6ccccc6[nH]c5c32)CNC4=O)O[C@@H](C)[C@@H]1O`: the IC50 came out at 2700 nM.

Take `CO[C@H]1NC(=O)c2c1c1c3ccccc3[nH]c1c1c2c2ccccc2n1[C@@H]1O[C@@H](C)[C@H](O)[C@@H](O)[C@H]1O`: the IC50 was above 500 nM.

`COC1NC(=O)c2c1c1c3ccccc3[nH]c1c1[nH]c3ccccc3c21` (stereo unspecified) came in with an IC50 above 500 nM.

In turn, `COc1ccc2c(c1)[nH]c1c3[nH]c4ccccc4c3c3c(c21)C(=O)NC3=O` registered an IC50 of 620 nM.

On to `C[C@@H]1O[C@@H](n2c3ccccc3c3c4c(c5c6ccccc6[nH]c5c32)CNC4=O)C[C@@H](NC=O)[C@H]1O`, for which the IC50 was above 500 nM.

As for `CN[C@@H]1C[C@H]2O[C@@](C)([C@@H]1OC)n1c3ccccc3c3c4c(c5c6ccccc6n2c5c31)C(=O)NC4=O` (stereo in doubt; 15), the IC50 stood at 20 nM.

On to `CO[C@@H]1[C@@H](O)C[C@H]2O[C@]1(C)n1c3ccccc3c3c4c(c5c6ccccc6n2c5c31)C(=O)NC4`, for which the IC50 was 720 nM.

In turn, `Cc1ccc2[nH]c3c4[nH]c5ccccc5c4c4c(c3c2c1)CNC4=O` showed an IC50 above 500 nM.

The molecule `C[C@]12O[C@H](C[C@]1(O)C(=O)O)n1c3ccccc3c3c4c(c5c6ccccc6n2c5c31)C(=O)NC4=O` showed an IC50 of 300 nM.

For `O=C1NCc2c1c1c3ccccc3[nH]c1c1[nH]c3c(O)cccc3c21`, the IC50 was above 500 nM.

On to `O=C1NCc2c1c1c3cc(O)ccc3[nH]c1c1[nH]c3ccc(O)cc3c21`, for which it took 3 nM to reach half-maximal inhibition (IC50).

The molecule `CO[C@@H]1C(=O)C[C@H]2O[C@]1(C)n1c3ccccc3c3c4c(c5c6ccccc6n2c5c31)C(=O)NC4` displayed an IC50 above 500 nM.

Molecule `CC(=O)N[C@H]1C[C@H]2O[C@@](C)([C@@H]1O)n1c3ccccc3c3c4c(c5c6ccccc6n2c5c31)C(=O)NC4` registered an IC50 of 60 nM.

The molecule `COC1NC(=O)c2c1c1c3ccccc3[nH]c1c1[nH]c3ccc(O)cc3c21` (stereo unspecified) returned an IC50 of 320 nM.

For `C[C@@H]1O[C@@H]2C[C@](O)([C@H]1O)n1c3ccccc3c3c4c(c5c6ccccc6n2c5c31)C(=O)NC4`, the IC50 was above 500 nM.

Molecule `O=C1NC(=O)c2c1c1c3ccccc3[nH]c1c1[nH]c3ccc(O)cc3c21` returned an IC50 of 670 nM.

With `O=C1NC(=O)c2c1c1c3ccccc3[nH]c1c1[nH]c3cc(O)ccc3c21`, the midpoint of inhibition, the IC50, lay at 530 nM.

In turn, `COC(=O)[C@]1(O)C[C@H]2O[C@]1(C)n1c3ccccc3c3c4c(c5c6ccccc6n2c5c31)C(=O)NC4` returned an IC50 above 500 nM.

The molecule `COc1ccc2[nH]c3c4[nH]c5ccc(OC)cc5c4c4c(c3c2c1)C(=O)NC4=O` [GW296115X] returned an IC50 above 500 nM.

Consider `COc1ccc2[nH]c3c4[nH]c5ccc(OC)cc5c4c4c(c3c2c1)CNC4=O`, for which the IC50 is above 500 nM.

Regarding `C[C@]12O[C@H](C[C@]1(O)C(=O)O)n1c3ccccc3c3c4c(c5c6ccccc6n2c5c31)CNC4=O`, the IC50 was above 500 nM.

For the molecule `CN1Cc2c(c3c4ccccc4[nH]c3c3[nH]c4ccccc4c23)C1=O`, the midpoint of inhibition, the IC50, lay at 510 nM.

Turning to `CO[C@@H]1[C@H](NC=O)C[C@H]2O[C@]1(C)n1c3ccccc3c3c4c(c5c6ccccc6n2c5c31)C(=O)NC4`, the IC50 is above 500 nM.

As for `C[C@@H]1O[C@@H](n2c3ccccc3c3c4c(c5c6ccccc6[nH]c5c32)CNC4=O)[C@H](O)[C@H](O)[C@H]1O`, the IC50 worked out at 470 nM.

Molecule `CO[C@@H]1[C@H](N(C)C(C)=O)C[C@H]2O[C@]1(C)n1c3ccccc3c3c4c(c5c6ccccc6n2c5c31)C(=O)NC4` displayed an IC50 of 570 nM.

With `C[C@@H]1O[C@@H](n2c3ccccc3c3c4c(c5c6ccccc6[nH]c5c32)C(=O)NC4=O)C[C@@H](NC=O)[C@H]1O`, the IC50 was 250 nM.

As to `CC(=O)N[C@@H]1C[C@H](n2c3ccccc3c3c4c(c5c6ccccc6[nH]c5c32)C(=O)NC4=O)O[C@@H](C)[C@@H]1O`, the IC50 came to 2240 nM.

Molecule `C[C@@H]1O[C@@H](n2c3ccc(O)cc3c3c4c(c5c6ccccc6[nH]c5c32)CNC4=O)[C@H](O)[C@H](O)[C@H]1O` came in with an IC50 of 76 nM.

`C[C@H]1O[C@@H]2C[C@](O)([C@H]1O)n1c3ccccc3c3c4c(c5c6cc(O)ccc6n2c5c31)C(=O)NC4`: the IC50 turned out to be 120 nM.

For `CO[C@@H]1[C@H](N(C)C(N)=O)C[C@H]2O[C@]1(C)n1c3ccccc3c3c4c(c5c6ccccc6n2c5c31)C(=O)NC4`, the IC50 was determined as 360 nM.

With `C[C@@H]1O[C@@H](n2c3ccccc3c3c4c(c5c6ccccc6[nH]c5c32)C(=O)NC4=O)[C@H](O)[C@H](O)[C@H]1O`, the IC50 is above 500 nM.

Take `CO[C@@H]1C(C)(O)O[C@@H]2C[C@@]1(OC)n1c3ccccc3c3c4c(c5c6ccccc6n2c5c31)C(=O)NC4` (stereo partly specified): the IC50 is above 500 nM.

As to `O=C1NC(=O)c2c1c1c3cc(O)ccc3[nH]c1c1[nH]c3ccc(O)cc3c21`, half-maximal inhibition (IC50) was put at 7 nM.

`Cn1c2ccccc2c2c3c(c4c5ccccc5[nH]c4c21)C(=O)NC3` yielded an IC50 of 550 nM.

Regarding `CO[C@H]1C(=O)C[C@H]2O[C@]1(C)n1c3ccccc3c3c4c(c5c6ccccc6n2c5c31)C(=O)NC4`, the half-inhibitory concentration (IC50) was above 500 nM.

In the case of `CO[C@@H]1[C@H](N(C)C(C)=O)C[C@H]2O[C@]1(C)n1c3ccccc3c3c4c(c5c6ccccc6n2c5c31)C(=O)NC4=O`, the midpoint of inhibition, the IC50, lay at 2070 nM.

In turn, `CO[C@@H]1[C@@H](O)[C@@H](O)[C@H]2O[C@]1(C)n1c3ccccc3c3c4c(c5c6ccccc6n2c5c31)C(=O)NC4` gave an IC50 of 690 nM.

The molecule `C[C@H]1O[C@@H]2C[C@](O)([C@@H]1O)n1c3ccccc3c3c4c(c5c6ccccc6n2c5c31)C(=O)NC4` gave an IC50 above 500 nM.

`O=C1NC(O)c2c1c1c3ccccc3[nH]c1c1[nH]c3ccccc3c21` (stereo unspecified) showed an IC50 above 500 nM.

`CO[C@@H]1[C@H](N(C)C=O)C[C@H]2O[C@]1(C)n1c3ccccc3c3c4c(c5c6ccccc6n2c5c31)C(=O)NC4` had an IC50 of 140 nM.

Take `COc1ccc2[nH]c3c4[nH]c5ccc(O)cc5c4c4c(c3c2c1)C(=O)NC4=O`: the IC50 was found to be 110 nM.

`CC(C)(C)c1ccc2[nH]c3c4[nH]c5ccccc5c4c4c(c3c2c1)C(=O)NC4=O` returned an IC50 above 500 nM.

`COC(=O)[C@@]1(O)C[C@H]2O[C@]1(C)n1c3ccccc3c3c4c(c5c6ccccc6n2c5c31)C(=O)NC4` [K-252A] yielded an IC50 above 500 nM.

Molecule `C[C@@H]1O[C@@H]2C[C@](O)([C@H]1O)n1c3ccccc3c3c4c(c5c6cc(O)ccc6n2c5c31)C(=O)NC4` came in with an IC50 of 210 nM.

Molecule `CO[C@@H]1[C@H](NC(=O)C(=O)c2c[nH]c3ccccc23)C[C@H]2O[C@]1(C)n1c3ccccc3c3c4c(c5c6ccccc6n2c5c31)C(=O)NC4` came in with an IC50 of 4780 nM.

In turn, `COC(=O)[C@@]1(OC)C[C@H]2O[C@]1(C)n1c3ccccc3c3c4c(c5c6ccccc6n2c5c31)C(=O)NC4` returned an IC50 of 330 nM.
